Experimental data from patent US10414775B2 (Merck Sharp & Dohme Corp., priority 2016, dated 2019).
Structures can show the parent of a compound that is named as a salt.

Molecular target: T1, Human CYP8B1 (Homo sapiens, UniProt Q9UNU6)
T1 construct: tissue Xenotech; host or cells: human liver microsomes
T1 sequence (Q9UNU6 1-501): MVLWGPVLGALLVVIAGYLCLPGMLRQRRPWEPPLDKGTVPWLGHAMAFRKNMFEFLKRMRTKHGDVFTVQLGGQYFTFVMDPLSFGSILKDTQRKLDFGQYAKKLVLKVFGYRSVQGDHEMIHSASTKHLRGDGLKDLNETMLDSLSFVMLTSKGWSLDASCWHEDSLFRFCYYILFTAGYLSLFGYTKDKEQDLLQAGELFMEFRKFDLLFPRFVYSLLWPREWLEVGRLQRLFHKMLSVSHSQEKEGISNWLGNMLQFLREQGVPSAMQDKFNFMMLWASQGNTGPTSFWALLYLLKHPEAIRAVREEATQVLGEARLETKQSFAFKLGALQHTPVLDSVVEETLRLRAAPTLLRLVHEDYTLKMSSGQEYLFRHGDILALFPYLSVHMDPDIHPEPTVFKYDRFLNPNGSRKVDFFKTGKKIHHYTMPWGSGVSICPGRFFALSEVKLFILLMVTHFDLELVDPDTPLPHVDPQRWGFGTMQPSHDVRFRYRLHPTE
Assay: Human Cyp8B1 Liver Microsome Assay
Type: biochemical
Conditions: human liver microsomes; substrate 7α-hydroxy-4-cholesten-3-one, NADPH; 30 min pre-incubation, 45 min reaction; RapidFire MS readout
Protocol: Human Cyp8B1 Liver Microsome Assay To a 384 well polypropylene plate (Corning 3656), 250 nl of inhibitor in 100% DMSO (1.25% final DMSO concentration) was pre-plated using an Echo liquid handler (Labcyte Inc.). Human liver microsomes (Xenotech) were diluted in of 0.1 M phosphate buffer, pH 7.4, at a concentration of 65 μg/ml and 15 μL was added to the 384 well plate. The plates were incubated at ambient room temperature for 30 minutes. After pre-incubation with inhibitor, the reaction was initiated by adding 5 μl of substrate solution (4.0 μM 7α-hydroxy-4-cholesten-3-one(Toronto Research Chemicals), 2 mM of NADPH (Sigma), 0.1 M phosphate buffer (pH 7.4). The reaction was carried out for 45 minutes at ambient room temperature and was quenched by the addition of 50 μl of acetonitrile+0.1% vol/vol formic acid (FA)+300 nM 7α-hydroxy-4-cholesten-3-one-d7 (Toronto Research Chemicals). The plates were sealed and centrifuged at 3000 rpm for 5 minutes. Plates were loaded onto the Agilent RapidFire RF300 HTMS system, wherein samples were sipped for 600 ms, and the sip sensor detection signals the diversion of sample from the loop onto a C4 solid phase extraction (SPE) cartridge, where salts are washed off for 2500 ms with a mobile phase of water with 0.1% vol/vol FA at a flow rate of 1.5 ml/min. The column path is switched, and the sample is eluted off the cartridge and flowed into the mass spectrometer for 3000 ms with a mobile phase of acetonitrile and 0.1% vol/vol FA at a flow rate of 1.25 ml/min. The aspirator tip was washed separately with water and acetonitrile between sample aspirations (each for 600 ms) to minimize carryover contamination. Mass spectrometry was carried out using a Sciex API4000 triple quadrupole mass spectrometer (Applied Biosystems, Concord, ON, Canada) equipped with electrospray ionization (ESI) operated in the positive-ion mode. The product 7α, 12α-dihydroxy-4-cholesten-3-one and internal standard 7α-hydroxy-4-cholsten-3-one-d7 were detected using multiple reaction monitoring (MRM) with Q1/Q3 transitions at m/z 417.3 to 381.3 and m/z 408.3 to 390.3, respectively, with a dwell time of 100 ms and a collision energy of 24 V for each transition. The mass spectrometer used an ESI voltage of 5000 V and a source temperature of 650° C. Extracted ion chromatograms for each transition were integrated and processed using the RapidFire Integrator software. The data for each well were normalized by monitoring product conversion with the ratio of AUCproduct/(AUCinternal standard). The data was then fitted to a four parameter logistic fit using ActivityBase Software to calculate an IC50 of the inhibitor.

SMILES | IC50 [nM]
C[C@@H]1CN(c2c(F)cnc3cc(Cl)ccc23)CC[C@@H]1C(=O)N1CCn2c(nnc2C(F)(F)F)C1 [Example 48, [(3S,4S)-1-(7-chloro-3-fluoroquinolin-4-yl)-3-methylpiperidin-4-yl][3-(trifluoromethyl)-5,6-dihydro[1,2,4]triazolo[4,3-a]pyrazin-7(8H)-yl]methanone] | 1.7
C[C@@H]1CN(c2ccnc3c(Cl)c(Cl)ccc23)CC[C@@H]1C(=O)N1CCn2c(nnc2C(F)(F)F)C1 [Example 32, ((3S,4S)-1-(7,8-dichloroquinolin-4-yl)-3-methylpiperidin-4-yl)(3-(trifluoromethyl)-5,6-dihydro-[1,2,4]triazolo[4,3-a]pyrazin-7(8H)-yl)methanone] | 111
C[C@@H]1CN(c2c(Cl)cnc3c(F)cccc23)CC[C@@H]1C(=O)N1CCn2c(nnc2C(F)(F)F)C1 [Example 6, ((3S,4S)-1-(3-chloro-8-fluoroquinolin-4-yl)-3-methylpiperidin-4-yl)(3-(trifluoromethyl)-5,6-dihydro-[1,2,4]triazolo[4,3-a]pyrazin-7(8H)-yl)methanone] | 0.9
C[C@@H]1CN(c2ccnc3c(F)c(Cl)ccc23)CC[C@@H]1C(=O)N1CCn2c(nnc2C(F)(F)F)C1 [Example 20, 7-chloro-8-fluoro-4-[(3S,4S)-3-methyl-4-{[3-(trifluoromethyl)-5,6-dihydro[1,2,4]tria-zolo[4,3-a]pyrazin-7(8H)-yl]carbonyl}piper-idin-1-yl]quinolinium trifluoroacetate] | 14
C[C@@H]1CN(c2ccnc3cc(C(=O)NCC4CC4)ccc23)CC[C@@H]1C(=O)N1CCn2c(nnc2C(F)(F)F)C1 [Example 67, N-(cyclopropylmethyl)-4-((3 S,4S)-3-methyl-4-(3-(trifluoromethyl)-5,6,7,8-tetrahydro-[1,2,4]triazolo[4,3-a]pyrazine-7-carbonyl)piperidin-1-yl)quinoline-7-carboxamide] | 23.6
Cc1ccc2c(N3CC[C@H](C(=O)N4CCn5c(nnc5C(F)(F)F)C4)[C@H](C)C3)ccnc2n1 [Example 27, [(3S,4S)-3-methyl-1-(7-methyl-1,8-naphthyridin-4-yl)piperidin-4-yl][3-(trifluoromethyl)-5,6-dihydro[1,2,4]tria-zolo[4,3-a]pyrazin-7(8H)-yl]methanone] | 6700
C[C@@H]1CN(c2c(Cl)cnc3cc(C(F)(F)F)ccc23)CC[C@@H]1C(=O)N1CCn2c(nnc2C(F)(F)F)C1 [Example 55, ((3S,4S)-1-(3-chloro-7-(trifluoromethyl)quinolin-4-yl)-3-methylpiperidin-4-yl)(3-(trifluoromethyl)-5,6-dihydro-[1,2,4]triazolo[4,3-a]pyrazin-7(8H)-yl)methanone] | 0.2
COc1ccc2c(N3CC[C@H](C(=O)N4CCn5c(nnc5C(F)(F)F)C4)[C@H](C)C3)c([N+](=O)[O-])cnc2c1 [Example 9, ((3S,4S)-1-(7-methoxy-3-nitroquinolin-4-yl)-3-methylpiperidin-4-yl)(3-(trifluoromethyl)-5,6-dihydro-[1,2,4]triazolo[4,3-a]pyrazin-7(8H)-yl)methanone] | 0.2
C[C@@H]1CN(c2ccnc3cc(C(=O)NC45CC(C4)C5)ccc23)CC[C@@H]1C(=O)N1CCn2c(nnc2C(F)(F)F)C1 [Example 68, N-(bicyclo[1.1.1]pentan-1-yl)-4-((3S,4S)-3-methyl-4-(3-(trifluoromethyl)-5,6,7,8-tetrahydro-[1,2,4]triazolo [4,3-a]pyrazine-7-carbonyl)piperidin-1-yl) quinoline-7-carboxamide] | 21.1

The remaining compounds from weak to strong by IC50, led by results:

IC50 [nM] | SMILES
49 | C[C@@H]1CN(c2ccnc3c2CCN(C(=O)OC2(C)CC2)C3)CC[C@@H]1C(=O)N1CCn2c(nnc2C(F)(F)F)C1 [Example 64, 1-methylcyclopropyl 4-((3 S,4S)-3-methyl-4-(3-(trifluoromethyl)-5,6,7,8-tetrahydro-[1,2,4]triazolo[4,3-a]pyrazine-7-carbonyl)piperidin-1-yl)-5,6-dihydro-1,7-naphthyridine-7(8H)-carboxylate]
41.7 | C[C@@H]1CN(c2ccnc3cc(-n4cncn4)ccc23)CC[C@@H]1C(=O)N1CCn2c(nnc2C(F)(F)F)C1 [Example 74, ((3S,4S)-1-(7-(1H-1,2,4-triazol-1-yl)quinolin-4-yl)-3-methylpiperidin-4-yl)(3-(trifluoromethyl)-5,6-dihydro-[1,2,4]triazolo[4,3-a]pyrazin-7(8H)-yl)methanone]
1.1 | C[C@@H]1CN(c2ccnc3cc(C(C)(F)F)ccc23)CC[C@@H]1C(=O)N1CCn2c(nnc2C(F)(F)F)C1 [Example 46, {(3S,4S)-1-[7-(1,1-difluoroethyl)quinolin-4-yl]-3-methylpiperidin-4-yl}[3-(trifluoromethyl)-5,6-dihydro[1,2,4]triazolo[4,3-a]pyrazin-7(8H)-yl]methanone]
0.67 | COc1ccc2c(N3CC[C@H](C(=O)N4CCn5c(nnc5C(F)(F)F)C4)[C@H](C)C3)c(C3CC3)cnc2c1 [Example 34, [(3S,4S)-1-(3-cyclopropyl-7-methoxyquinolin-4-yl)-3-methylpiperidin-4-yl][3-(trifluoromethyl)-5,6-dihydro[1,2,4]triazolo[4,3-a]pyrazin-7(8H)-yl]methanone]
0.61 | C[C@@H]1CN(c2c(C(F)F)cnc3cc(C4CC4)ccc23)CC[C@@H]1C(=O)N1CCn2c(nnc2C(F)(F)F)C1 [Example 54, {(3S,4S)-1-[7-cyclopropyl-3-(difluoromethyl)quinolin-4-yl]-3-methylpiperidin-4-yl}[3-(trifluoromethyl)-5,6-dihydro[1,2,4]triazolo[4,3-a]pyrazin-7(81H)-yl]methanone]
0.6 | C[C@@H]1CN(c2c(Cl)cnc3cc(F)ccc23)CC[C@@H]1C(=O)N1CCn2c(nnc2C(F)(F)F)C1 [Example 4, ((3S,4S)-1-(3-chloro-7-fluoroquinolin-4-yl)-3-methylpiperidin-4-yl)(3-(trifluoromethyl)-5,6-dihydro-[1,2,4]triazolo[4,3-a]pyrazin-7(8H)-yl)methanone]
0.57 | C[C@@H]1CN(c2c(F)cnc3cc(C(C)(F)F)ccc23)CC[C@@H]1C(=O)N1CCn2c(nnc2C(F)(F)F)C1 [Example 47, {(3S,4S)-1-[7-(1,1-difluoroethyl)-3-fluoroquinolin-4-yl]-3-methylpiperidin-4-yl}[3-(trifluoromethyl)-5,6-dihydro[1,2,4]triazolo[4,3-a]pyrazin-7(8H)-yl]methanone]
0.5 | C[C@@H]1CN(c2c(Cl)cnc3cc(-c4ncco4)ccc23)CC[C@@H]1C(=O)N1CCn2c(nnc2C2CC2)C1 [Example 78, ((3S,4S)-1-(3-chloro-7-(oxazol-2-yl)quinolin-4-yl)-3-methylpiperidin-4-yl) (3-cyclopropyl-5,6-dihydro-[1,2,4]triazolo[4,3-a]pyrazin-7(8H)-yl)methanone]
0.4 | C[C@@H]1CN(c2ccnc3cc(-c4ccccc4)ccc23)CC[C@@H]1C(=O)N1CCn2c(nnc2C(F)(F)F)C1 [Example 80]
0.38 | COc1ccc2c(N3CC[C@H](C(=O)N4CCn5c(nnc5C(F)(F)F)C4)[C@H](C)C3)c(Cl)cnc2c1F [Example 41, [(3S,4S)-1-(3-chloro-8-fluoro-7-methoxyquinolin-4-yl)-3-methylpiperidin-4-yl][3-(trifluoromethyl)-5,6-dihydro[1,2,4]triazolo[4,3-a]pyrazin-7(8H)-yl]methanone]
0.17 | Cc1cnc2cc(C(F)(F)F)ccc2c1N1CC[C@H](C(=O)N2CCn3c(nnc3C(F)(F)F)C2)[C@H](C)C1 [Example 35, {(3S,4S)-3-methyl-1-[3-methyl-7-(trifluoromethyl)quinolin-4-yl]piperidin-4-yl}[3-(trifluoromethyl)-5,6-dihydro[1,2,4]triazolo[4,3-a]pyrazin-7(8H)-yl]methanone]
